Data: ChEMBL document CHEMBL1142926, “A new modification of anti-tubercular active molecules” (Bioorg Med Chem, 2007)
In brackets after ≈: the same amount, converted by molar mass.

What was measured:
[1] = test system: Mycobacterium tuberculosis; experiment: Antimycobacterial activity against Mycobacterium tuberculosis 331/88 after 21 days; format: functional; conditions: 504 h
Mycobacterium avium [2] = experiment: Antimycobacterial activity against Mycobacterium avium 330/88 after 21 days; format: functional; conditions: 504 h
[3] = Lipophilicity, log K of the compound; format: physicochemical; conditions: octanol/water
Mycobacterium kansasii [4] = experiment: Antimycobacterial activity against Mycobacterium kansasii 6509/96 after 14 days; format: functional; conditions: 336 h
Mycobacterium kansasii [5] = experiment: Antimycobacterial activity against Mycobacterium kansasii 235/80 after 14 days; format: functional; conditions: 336 h
Mycobacterium kansasii [6] = experiment: Antimycobacterial activity against Mycobacterium kansasii 6509/96 after 7 days; format: functional; conditions: 168 h
Mycobacterium kansasii [7] = experiment: Antimycobacterial activity against Mycobacterium kansasii 235/80 after 7 days; format: functional; conditions: 168 h
Mycobacterium kansasii [8] = experiment: Antimycobacterial activity against Mycobacterium kansasii 235/80 after 21 days; format: functional; conditions: 504 h
[9] = test system: Mycobacterium tuberculosis; experiment: Antimycobacterial activity against Mycobacterium tuberculosis H37Rv; format: functional, organism-based
[10] = test system: Mycobacterium tuberculosis; experiment: Antimycobacterial activity against Mycobacterium tuberculosis 331/88 after 14 days; format: functional; conditions: 336 h
Mycobacterium kansasii [11] = experiment: Antimycobacterial activity against Mycobacterium kansasii 6509/96 after 21 days; format: functional; conditions: 504 h
Mycobacterium avium [12] = experiment: Antimycobacterial activity against Mycobacterium avium 330/88 after 14 days; format: functional; conditions: 336 h
[13] = test system: Mycobacterium tuberculosis; experiment: Antimycobacterial activity against Mycobacterium tuberculosis H37Rv at 6.25 ug/mL; format: functional
[14] = Stability after 14 days; format: physicochemical; conditions: read-out: Stability
[15] = Stability after 21 days; format: physicochemical; conditions: read-out: Stability
[16] = Stability after 7 days; format: physicochemical; conditions: read-out: Stability
[17] = Stability within 7 days; format: physicochemical; conditions: 168 h

## CCC(CO)N1CCN(C(CC)CO)C1OS(=O)(=O)c1ccc(C)cc1 (centres undefined)
[1]
  MIC: 500 µM (≈ 193 µg/mL)
Mycobacterium avium [2]
  MIC: 1000 µM (≈ 387 µg/mL)
[3]
  log K: 0.243
Mycobacterium kansasii [4]
  MIC: 500 µM (≈ 193 µg/mL)
Mycobacterium kansasii [5]
  MIC: 1000 µM (≈ 387 µg/mL)
Mycobacterium kansasii [6]
  MIC: 250 µM (≈ 96.6 µg/mL)
Mycobacterium kansasii [7]
  MIC: 500 µM (≈ 193 µg/mL)
Mycobacterium kansasii [8]
  MIC: 1000 µM (≈ 387 µg/mL)
[9]
  MIC: > 6.25 µg/mL
[10]
  MIC: 250 µM (≈ 96.6 µg/mL)
Mycobacterium kansasii [11]
  MIC: 1000 µM (≈ 387 µg/mL)
Mycobacterium avium [12]
  MIC: 500 µM (≈ 193 µg/mL)
[13]
  inhibition at 6.25 µg/mL: 0%

## CN(C)/C=N/C(=O)c1cnccn1
[3]
  log K: 0.1718
[9]
  MIC: > 6.25 µg/mL
[13]
  inhibition at 6.25 µg/mL: 1%

## O=C(N/N=C/N1CCOCC1)c1ccncc1
[3]
  log K: 0.2653
[9]
  MIC: > 6.25 µg/mL
[13]
  inhibition at 6.25 µg/mL: 74%

## O=C(N/N=C/NCc1ccccn1)c1ccncc1
[1]
  MIC: 32 µM (≈ 8.17 µg/mL)
Mycobacterium avium [2]
  MIC: > 1000 µM
[3]
  log K: 0.3343
Mycobacterium kansasii [4]
  MIC: 125 µM (≈ 31.9 µg/mL)
Mycobacterium kansasii [5]
  MIC: 1000 µM (≈ 255 µg/mL)
Mycobacterium kansasii [6]
  MIC: 62.5 µM (≈ 16 µg/mL)
Mycobacterium kansasii [7]
  MIC: 1000 µM (≈ 255 µg/mL)
Mycobacterium kansasii [8]
  MIC: 1000 µM (≈ 255 µg/mL)
[9]
  IC50: > 10 µg/mL
  MIC: 6.25 µg/mL (≈ 24.5 µM)
[10]
  MIC: 16 µM (≈ 4.08 µg/mL)
Mycobacterium kansasii [11]
  MIC: 125 µM (≈ 31.9 µg/mL)
Mycobacterium avium [12]
  MIC: 1000 µM (≈ 255 µg/mL)
[13]
  inhibition at 6.25 µg/mL: 92%

## O=C(N/N=C/NCc1ccccc1)c1ccncc1
[1]
  MIC: 65.5 µM (≈ 16.7 µg/mL)
Mycobacterium avium [2]
  MIC: > 1000 µM
[3]
  log K: 0.5426
Mycobacterium kansasii [4]
  MIC: 250 µM (≈ 63.6 µg/mL)
Mycobacterium kansasii [5]
  MIC: 1000 µM (≈ 254 µg/mL)
Mycobacterium kansasii [6]
  MIC: 125 µM (≈ 31.8 µg/mL)
Mycobacterium kansasii [7]
  MIC: 500 µM (≈ 127 µg/mL)
Mycobacterium kansasii [8]
  MIC: 1000 µM (≈ 254 µg/mL)
[9]
  IC50: > 10 µg/mL
  MIC: > 6.25 µg/mL
[10]
  MIC: 32 µM (≈ 8.14 µg/mL)
Mycobacterium kansasii [11]
  MIC: 250 µM (≈ 63.6 µg/mL)
Mycobacterium avium [12]
  MIC: 1000 µM (≈ 254 µg/mL)
[13]
  inhibition at 6.25 µg/mL: 93%

## O=C(N/N=C\N1CCN(c2cc3c(cc2F)c(=O)c(C(=O)O)cn3C2CC2)CC1)c1ccncc1
[14]
  remaining at 336 h: 10%
[1]
  MIC: 4 µM (≈ 1.91 µg/mL)
Mycobacterium avium [2]
  MIC: 250 µM (≈ 120 µg/mL)
[15]
  remaining at 504 h: 3%
[3]
  log K: 0.9159
Mycobacterium kansasii [4]
  MIC: 4 µM (≈ 1.91 µg/mL)
Mycobacterium kansasii [5]
  MIC: 4 µM (≈ 1.91 µg/mL)
Mycobacterium kansasii [6]
  MIC: 2 µM (≈ 0.957 µg/mL)
Mycobacterium kansasii [7]
  MIC: 2 µM (≈ 0.957 µg/mL)
Mycobacterium kansasii [8]
  MIC: 8 µM (≈ 3.83 µg/mL)
[9]
  MIC: 3.13 µg/mL (≈ 6.54 µM)
[10]
  MIC: 2 µM (≈ 0.957 µg/mL)
Mycobacterium kansasii [11]
  MIC: 8 µM (≈ 3.83 µg/mL)
Mycobacterium avium [12]
  MIC: 125 µM (≈ 59.8 µg/mL)
[16]
  remaining at 168 h: 30%
[13]
  inhibition at 6.25 µg/mL: 99%

## O=C(N/N=C/NNC(=O)c1ccncc1)c1ccncc1
[14]
  remaining at 336 h: 4%
[15]
  remaining at 504 h: 1%
[3]
  log K: 0.3027
[9]
  IC50: > 62.5 µg/mL
  MIC: 0.39 µg/mL (≈ 1.37 µM)
[16]
  remaining at 168 h: 19%
[13]
  inhibition at 6.25 µg/mL: 96%

## O=C(NN/C=N/C(=O)c1cnccn1)c1ccncc1
[1]
  MIC: 8 µM (≈ 2.16 µg/mL)
Mycobacterium avium [2]
  MIC: 125 µM (≈ 33.8 µg/mL)
[3]
  log K: 0.3562
Mycobacterium kansasii [4]
  MIC: 8 µM (≈ 2.16 µg/mL)
Mycobacterium kansasii [5]
  MIC: 1000 µM (≈ 270 µg/mL)
Mycobacterium kansasii [6]
  MIC: 8 µM (≈ 2.16 µg/mL)
Mycobacterium kansasii [7]
  MIC: 500 µM (≈ 135 µg/mL)
Mycobacterium kansasii [8]
  MIC: 1000 µM (≈ 270 µg/mL)
[9]
  IC50: > 10 µg/mL
  MIC: 0.1 µg/mL (≈ 0.37 µM)
[10]
  MIC: 4 µM (≈ 1.08 µg/mL)
Mycobacterium kansasii [11]
  MIC: 16 µM (≈ 4.32 µg/mL)
Mycobacterium avium [12]
  MIC: 125 µM (≈ 33.8 µg/mL)
[17]
  Activity: Not Active
[13]
  inhibition at 6.25 µg/mL: 94%

## CN(C)/C=N/NC(=O)c1ccncc1
[1]
  MIC: 16 µM (≈ 3.08 µg/mL)
Mycobacterium avium [2]
  MIC: > 1000 µM
[3]
  log K: 0.252
Mycobacterium kansasii [4]
  MIC: 250 µM (≈ 48.1 µg/mL)
Mycobacterium kansasii [5]
  MIC: 500 µM (≈ 96.1 µg/mL)
Mycobacterium kansasii [6]
  MIC: 125 µM (≈ 24 µg/mL)
Mycobacterium kansasii [7]
  MIC: 250 µM (≈ 48.1 µg/mL)
Mycobacterium kansasii [8]
  MIC: 1000 µM (≈ 192 µg/mL)
[9]
  MIC: > 6.25 µg/mL
[10]
  MIC: 16 µM (≈ 3.08 µg/mL)
Mycobacterium kansasii [11]
  MIC: 500 µM (≈ 96.1 µg/mL)
Mycobacterium avium [12]
  MIC: 1000 µM (≈ 192 µg/mL)
[13]
  inhibition at 6.25 µg/mL: 1%

## O=C(N/N=C/Nc1ccc(C(=O)O)c(O)c1)c1ccncc1
[1]
  MIC: 8 µM (≈ 2.4 µg/mL)
Mycobacterium avium [2]
  MIC: 125 µM (≈ 37.5 µg/mL)
[3]
  log K: 0.366
Mycobacterium kansasii [4]
  MIC: 250 µM (≈ 75.1 µg/mL)
Mycobacterium kansasii [5]
  MIC: 1000 µM (≈ 300 µg/mL)
Mycobacterium kansasii [6]
  MIC: 125 µM (≈ 37.5 µg/mL)
Mycobacterium kansasii [7]
  MIC: 500 µM (≈ 150 µg/mL)
Mycobacterium kansasii [8]
  MIC: 1000 µM (≈ 300 µg/mL)
[9]
  IC50: > 62.5 µg/mL
  MIC: 0.39 µg/mL (≈ 1.3 µM)
[10]
  MIC: 4 µM (≈ 1.2 µg/mL)
Mycobacterium kansasii [11]
  MIC: 250 µM (≈ 75.1 µg/mL)
Mycobacterium avium [12]
  MIC: 125 µM (≈ 37.5 µg/mL)
[17]
  Activity: Not Active
[13]
  inhibition at 6.25 µg/mL: 96%

## O=C(/N=C/Nc1ccc(C(=O)O)c(O)c1)c1cnccn1
[14]
  remaining at 336 h: 1%
[1]
  MIC: 16 µM (≈ 4.58 µg/mL)
Mycobacterium avium [2]
  MIC: 62.5 µM (≈ 17.9 µg/mL)
[15]
  remaining at 504 h: 0.1%
[3]
  log K: 0.3695
Mycobacterium kansasii [4]
  MIC: 16 µM (≈ 4.58 µg/mL)
Mycobacterium kansasii [5]
  MIC: 32 µM (≈ 9.16 µg/mL)
Mycobacterium kansasii [6]
  MIC: 8 µM (≈ 2.29 µg/mL)
Mycobacterium kansasii [7]
  MIC: 16 µM (≈ 4.58 µg/mL)
Mycobacterium kansasii [8]
  MIC: 32 µM (≈ 9.16 µg/mL)
[9]
  IC50: > 10 µg/mL
  MIC: 3.13 µg/mL (≈ 10.9 µM)
[10]
  MIC: 8 µM (≈ 2.29 µg/mL)
Mycobacterium kansasii [11]
  MIC: 32 µM (≈ 9.16 µg/mL)
Mycobacterium avium [12]
  MIC: 32 µM (≈ 9.16 µg/mL)
[16]
  remaining at 168 h: 10%
[13]
  inhibition at 6.25 µg/mL: 98%

## O=C(/N=C/N1CCN(c2cc3c(cc2F)c(=O)c(C(=O)O)cn3C2CC2)CC1)c1cnccn1
[1]
  MIC: 4 µM (≈ 1.86 µg/mL)
Mycobacterium avium [2]
  MIC: 125 µM (≈ 58.1 µg/mL)
[3]
  log K: 0.97
Mycobacterium kansasii [4]
  MIC: 2 µM (≈ 0.929 µg/mL)
Mycobacterium kansasii [5]
  MIC: 2 µM (≈ 0.929 µg/mL)
Mycobacterium kansasii [6]
  MIC: 2 µM (≈ 0.929 µg/mL)
Mycobacterium kansasii [7]
  MIC: 1 µM (≈ 0.464 µg/mL)
Mycobacterium kansasii [8]
  MIC: 4 µM (≈ 1.86 µg/mL)
[9]
  IC50: > 10 µg/mL
  MIC: 0.78 µg/mL (≈ 1.68 µM)
[10]
  MIC: 2 µM (≈ 0.929 µg/mL)
Mycobacterium kansasii [11]
  MIC: 4 µM (≈ 1.86 µg/mL)
Mycobacterium avium [12]
  MIC: 62.5 µM (≈ 29 µg/mL)
[17]
  Activity: Not Active
[13]
  inhibition at 6.25 µg/mL: 100%

## O=C(O)c1cn(C2CC2)c2cc(N3CCNCC3)c(F)cc2c1=O [CIPROFLOXACIN]
[9]
  IC50: > 10 µg/mL
  MIC: 2 µg/mL (≈ 6.04 µM)
[10]
  MIC: 16 µM (≈ 5.3 µg/mL)
[13]
  inhibition at 6.25 µg/mL: 98%

## NNC(=O)c1ccncc1 [ISONIAZID]
[1]
  MIC: 1 µM (≈ 0.137 µg/mL)
Mycobacterium avium [2]
  MIC: > 250 µM
Mycobacterium kansasii [4]
  MIC: 4 µM (≈ 0.549 µg/mL)
Mycobacterium kansasii [5]
  MIC: > 250 µM
Mycobacterium kansasii [6]
  MIC: 2 µM (≈ 0.274 µg/mL)
Mycobacterium kansasii [7]
  MIC: > 250 µM
Mycobacterium kansasii [8]
  MIC: > 250 µM
[9]
  IC50: > 100 µg/mL
  MIC: 0.025 µg/mL (≈ 0.182 µM)
[10]
  MIC: 1 µM (≈ 0.137 µg/mL)
Mycobacterium kansasii [11]
  MIC: 4 µM (≈ 0.549 µg/mL)
Mycobacterium avium [12]
  MIC: > 250 µM

## NC(=O)c1cnccn1 [PYRAZINAMIDE]
[1]
  MIC: 8 µM (≈ 0.985 µg/mL)
Mycobacterium avium [2]
  MIC: > 128 µM
Mycobacterium kansasii [5]
  MIC: > 128 µM
Mycobacterium kansasii [7]
  MIC: > 128 µM
Mycobacterium kansasii [8]
  MIC: > 128 µM
[9]
  MIC: 6 µg/mL (≈ 48.7 µM)
[10]
  MIC: 8 µM (≈ 0.985 µg/mL)
Mycobacterium avium [12]
  MIC: > 128 µM
